{
  "source": "patent US10273290B2",
  "about": "“Hydrocarbon double-stapled stabilized HIV-1 GP41 heptad repeat domain peptides” (DANA-FARBER CANCER INSTITUTE, INC., priority 2009, dated 2019)",
  "key": {"[1]": {"tested_on": "HIV-1 HXBc2 virus bearing HR1 double mutations V38A/N42T and V38E/N42S", "assay": "HIV-1 infectivity assay, enfuvirtide-resistant HR1 double mutants", "assay_type": "cell-based", "experimental": "(§1) HIV-1 infectivity assays were performed using known methods (Madani et al., 2007 Inhibition of human immunodeficiency virus envelope glycoprotein-mediated single cell lysis by low-molecular-weight antagonists of viral entry. J Virol, 81: 532-538; and Si et al., 2001 Envelope glycoprotein determinants of neutralization resistance in a simian-human immunodeficiency virus (SHIV-HXBc2P 3.2) derived by passage in monkeys. J Virol, 75:4208-4218; both incorporated herein by reference). […] Virus-containing supernatants were harvested 24-30 hr after transfection, filtered, aliquoted, and stored at −80° C. Target cells were seeded at a density of 6×10^3 cells/well in 96-well plates 24 hours prior to infection. Cf2Th-CD4-CCR5 cells were used for infections by viruses with the ADA, YU2, and A-MLV envelope glycoproteins, and Cf2Th-CD4-CXCR4 cells used for HXBc2, HXBc2P 3.2, and A-MLV. On the day of infection, the structured peptides (0-3 μM) were added to recombinant viruses (10,000 RT units) to a final volume of 50 μL and incubated at 37° C. for 30 min. Media was then removed and the target cells incubated with virus-peptide mixture for 48 hours at 37° C. The media was again removed and the cells lysed with 30 μL of passive lysis buffer (Promega) and three freeze-thaw cycles."}, "[2]": {"assay": "Circular dichroism, α-helical content", "assay_type": "physicochemical", "experimental": "The α-helicity of stapled modified polypeptides was compared to their unmodified counterparts by circular dichroism. CD spectra were obtained on an Aviv spectropolarimeter at 20° C. using the following standard measurement parameters: wavelength, 190-260 nm; step resolution, 0.5 nm; speed, 20 nm/sec; accumulations, 10; response, 1 sec; bandwidth, 1 nm; path length, 0.1 cm. The α-helical content of each peptide was calculated by dividing the mean residue ellipticity [θ]222obs, by the reported [θ]222obs for a model helical peptide (Forood, B., E. J. Feliciano, and K. P. Nambiar, PNAS, 1993. 90(3): p. 838-842; J. Martin Scholtz, Biopolymers, 1991. 31(13): p. 1463-1470; Lawless, M. K., et al., Biochemistry, 1996. 35(42): p. 13697-13708) or using, for example, the Aviv machine using CDNN software developed by Brohm in order to deduce five different secondary structure fractions (helix, parallel and antiparallel beta-sheet, beta-turn and random coil). Protein Engineering, 1992. 5(3); p. 191-195\nIn order to evaluate secondary structure improvements of hydrocarbon-stapled peptides, we record and analyze circular dichroism (CD) spectra on an Aviv Biomedical spectrometer (model 410), as described above. […] The CD spectra are initially plotted as wavelength versus millidegree. […] After conversion to mean residue ellipticity, percent α-helicity can be calculated using the equation, % helicity=100×[θ]222/^max[θ]222, where ^max[θ]222=−40,000×[1−(2.5/number of amino acid residues)]. We also employ the curve-fitting CDDN software that is bundled with our spectrometer to calculate the relative fractions of secondary structure including α-helix, parallel and antiparallel β-sheet, β-turn and random coil."}, "[3]": {"tested_on": "pepsin", "assay": "Protease resistance assay, pepsin at pH 2", "conditions": "for Half-life (minutes), pepsin: pepsin at 0.5 ng/μL, peptide 25 μM, acidic conditions", "experimental": "The DAD signal was set to 280 nm with an 8 nm bandwidth and MSD set to scan mode with one channel at (M+2H)/2, +1 mass units and the other at (M+3H)/3, +1 mass units. […] Reaction samples were composed of 5 μL peptide in DMSO (1 mM stock) and 195 μL of buffer consisting of 50 mM phosphate buffer pH 7.4 containing 2 mM CaCl2. Upon injection of the 0 hr time point sample, 2 μL of 50 ng/μL chymotrypsin (Sigma) was added and the amount of intact peptide quantitated by serial injection over time. An internal control of acetylated tryptophan carboxamide at a concentration of 100 μM was used to normalize each MSD data point. A plot of MSD area versus time yielded an exponential decay curve and half-lives were determined by nonlinear regression analysis using Prism software (GraphPad). The assay was also performed using trypsin and pepsin in their appropriate buffer conditions."}, "[4]": {"tested_on": "HIV-1 strains HXBc2, ADA, and HXBc2P 3.2", "assay": "Luciferase-based HIV-1 infectivity assay, three strains", "assay_type": "cell-based", "experimental": "Also the direct inhibitory activity of modified polypeptides and the antibodies targeted thereto can be quantified based upon their capacity to directly block HIV infection of CD4-positive and CCR5-expressing canine thymus cells. […] The identical experiment is performed with the amphotropic murine leukemia virus (AMLV), to monitor for any nonspecific effects of the modified polypeptides or antibodies.\nas §1\nRecombinant HIV-1 bearing the envelope glycoproteins from three distinct HIV-1 strains, HXBc2, ADA, and HXBc2P 3.2, and a negative control virus bearing the amphotropic murine leukemia virus (A-MLV) envelope glycoproteins, were evaluated."}, "[5]": {"assay": "Chymotrypsin, pH 7", "excerpt": "Table printed on a drawing sheet, FIG. 17D\n(§2) Title: Chymotrypsin, pH 7\nFirst reader's note: The table also serves as the legend of the plot below it (fraction intact over time); the plot symbols before the compound names are left out."}, "[6]": {"assay": "Chymotrypsin, pH 7", "excerpt": "as §2\nFirst reader's note: The table also serves as the legend of the plot of fraction intact over time; the line and marker symbols are left out.", "remark": "listed apart in the source"}, "[7]": {"biological_target": "T1, chymotrypsin (Bos taurus, UniProt P00766)", "T1 construct": "purchased Sigma", "assay": "Protease resistance assay, chymotrypsin (LC/MS)", "assay_type": "in vitro ADME", "conditions": "pH 7.4, 0.5 chymotrypsin, peptide 25 μM", "description": "The DAD signal was set to 280 nm with an 8 nm bandwidth and MSD set to scan mode with one channel at (M+2H)/2, +1 mass units and the other at (M+3H)/3, +1 mass units. Integration of each MSD signal yielded areas under the curve of >10^8 counts. Reaction samples were composed of 5 μL peptide in DMSO (1 mM stock) and 195 μL of buffer consisting of 50 mM phosphate buffer pH 7.4 containing 2 mM CaCl2. Upon injection of the 0 hr time point sample, 2 μL of 50 ng/μL chymotrypsin (Sigma) was added and the amount of intact peptide quantitated by serial injection over time. An internal control of acetylated tryptophan carboxamide at a concentration of 100 μM was used to normalize each MSD data point. A plot of MSD area versus time yielded an exponential decay curve and half-lives were determined by nonlinear regression analysis using Prism software (GraphPad)."}, "[8]": {"tested_on": "4E10 antibody", "assay": "Competitive 4E10 antibody binding by ELISA", "parameters": "species or system human", "conditions": "competition with wild-type MPER peptide probe", "experimental": "Half maximal inhibitory concentrations (IC50s) were determined by competitive enzyme-linked assay (ELISA) using a constant concentration of biotinylated peptide and 4E10-IgG with a variable concentration of gp41 peptides. Microwells were coated overnight at 4° C. with 50 μl of PBS containing neutravidin (4 μg/ml). Wells were washed twice with PBS containing 0.05% Tween 20, and blocked with 4% non-fat dry milk (NFDM) in PBS for 45 min at 37° C. Meanwhile, a mixture of a biotinylated 4E10-peptide epitope, biotin-PEG2-[…], (20 nM), IgG 4E10 (0.2 nM), and the competing peptide analogue (threefold dilution series starting at 10 μM) in 0.4% NFDM, 0.02% Tween and PBS was incubated in a separate 96-well plate at 37° C. for 2 h. After washing the blocked plate, the mixture of 4E10, biotinylated peptide and competing structured HIV-1 gp41 peptide was added to the wells. After 20 min at room temperature, the wells were washed five times, and a 1:500 dilution of Goat Anti-Human IgG F(ab′)2, Peroxidase Conjugate was added. […] After 20 min, wells containing TMB solution were stopped by adding 50 μl of H2SO4 (2 M), and the absorbance at 450 nm was read on a microplate reader (Molecular Devices). The concentration of competitor peptide corresponding to a half-maximal signal (IC50) was determined by interpolation of the resulting binding curve using GraphPad Prism. […]"}},
  "note": "Entries after “also recorded” stand apart in the source; their conditions may differ. Where two headings read alike, the source gives them in different places. Bridge positions count the residues as written; N and C are the ends. Square brackets hold non-standard residues; d marks the D form. Ends that are not written are not given here. Peptide text beside a SMILES is read from it. S5 = C=CCCC[C@](C)(N)C(=O)O; Nle = CCCC[C@H](N)C(=O)O",
  "data": [
    {"compound": "enfuvirtide [listing 1 of 2 here]", "values": [
      {"measurement": "functional activity against HR1 double-mutant HIV-1, in words", "setting": "[1]", "value": "no functional activity"},
      {"measurement": "% helicity at pH 2", "setting": "[2]; pH 2", "value": 49, "unit": "%"},
      {"measurement": "% helicity at pH 7", "setting": "[2]; pH 7", "value": 19, "unit": "%"},
      {"measurement": "calculated α-helical content", "setting": "[2]; physiologic pH", "value": "~25", "unit": "%"},
      {"measurement": "Half-life (minutes), pepsin", "setting": "[3]", "value": 4, "unit": "min"}
    ]},
    {"compound": "enfuvirtide [listing 2 of 2 here]", "values": [
      {"measurement": "anti-HIV-1 (anti-viral) activity, in words", "setting": "[4]", "value": "relatively impaired anti-viral activity"},
      {"measurement": "Half-Life", "setting": "[5]", "value": 16.73, "unit": "h"},
      {"measurement": "Half-life (minutes), pepsin", "setting": "[3]", "value": 3320, "unit": "min"}
    ]},
    {"compound": "Sifuvirtide", "values": [
      {"measurement": "Half-Life", "setting": "[6]", "value": 2, "unit": "min"}
    ]},
    {"compound": "CCCC[C@H](NC(C)=O)C(=O)N[C@H](C(=O)N[C@@H](Cc1c[nH]c2ccccc12)C(=O)N[C@@H](CCCC)C(=O)N[C@@H](CCC(=O)O)C(=O)N[C@@H](Cc1c[nH]c2ccccc12)C(=O)N[C@@]1(C)CCCC=CCCC[C@@](C)(C(=O)N[C@@H](CC(N)=O)C(=O)N[C@@H](Cc2ccc(O)cc2)C(=O)N[C@H](C(=O)N[C@@H](CO)C(=O)N[C@@H](CC(C)C)C(=O)N[C@H](C(=O)N[C@@H](Cc2c[nH]cn2)C(=O)N[C@@H](CO)C(=O)N[C@@H](CC(C)C)C(=O)N[C@H](C(=O)N[C@@H](CCC(=O)O)C(=O)N[C@@H](CCC(=O)O)C(=O)N[C@@H](CO)C(=O)N[C@@H](CCC(N)=O)C(=O)N[C@@H](CC(N)=O)C(=O)N[C@@H](CCC(N)=O)C(=O)N[C@@]2(C)CCCC=CCCC[C@@](C)(C(=O)N[C@@H](CCC(N)=O)C(=O)N[C@@H](CCC(=O)O)C(=O)N[C@@H](CC(C)C)C(=O)N[C@@H](CC(C)C)C(=O)N[C@@H](CCC(=O)O)C(N)=O)NC(=O)[C@H](CC(N)=O)NC(=O)[C@H](CCCCN)NC(=O)[C@H](CCC(=O)O)NC2=O)[C@@H](C)CC)[C@@H](C)CC)[C@@H](C)O)NC(=O)[C@H]([C@@H](C)CC)NC(=O)[C@H](CCC(=O)O)NC(=O)[C@H](CCCNC(=N)N)NC1=O)[C@@H](C)O", "note": "[SAH-gp41(626-662)(B, F)] (Ac-[Nle]TW[Nle]EW[S5]REI[S5]NYTSLIHSLIEESQNQ[S5]EKN[S5]QELLE-NH2; staple 7-11, 28-32)", "values": [
      {"measurement": "Half-Life", "setting": "[7]", "value": 21.2, "unit": "h"},
      {"measurement": "anti-HIV-1 (anti-viral) activity, in words", "setting": "[4]", "value": "relatively impaired anti-viral activity"},
      {"measurement": "half-life at 25 μM", "setting": "[3]; pepsin (isolated protease) in buffer, pH 2", "value": 15.5, "unit": "h"}
    ]},
    {"compound": "SEQ ID NO:135: i, i+4 singly stapled SAH-MPER peptide stapled in a similar position (ELDKWASLWNWFNITN[S5]LWY[S5]K-NH2; staple 17-21)", "values": [
      {"measurement": "competition for 4E10 antibody binding, in words", "setting": "[8]", "value": "superior to the wild-type MPER peptide"}
    ]},
    {"compound": "SEQ ID NO:136: i, i+3 singly stapled SAH-MPER peptide (ELDKWASLWNWFNITN[S5]LW[S5]IK-NH2; staple 17-20)", "values": [
      {"measurement": "competition for 4E10 antibody binding, in words", "setting": "[8]", "value": "compete more effectively for binding than an i, i+4 stapled peptide stapled in a similar position; also recorded: superior to the wild-type MPER peptide"}
    ]}
  ]
}
